# Reference: patent US8937183B2, “Detection of hydrogen peroxide” (Promega Corporation, priority 2011, dated 2015)
# Assay: Generation of bioluminescence from luciferin borates upon treatment with hydrogen peroxide (luciferase light reaction)
# Type: biochemical
# Protocol: In this example, luciferin borates were incubated with hydrogen peroxide, and luciferin generation was measured using a light reaction catalyzed by luciferase. An increase in light output (bioluminescence) as a result of treatment of the luciferin borates with hydrogen peroxide indicates generation of luciferin as a result of the reaction with hydrogen peroxide.
# 1 M phosphate solutions (either 6.8 g of KH2PO4 (Fisher) or 11.4 g of K2HPO4 (Sigma) were dissolved in Nanopure water to 1 M) were diluted 1:5 with Nanopure water to produce 200 mM phosphate solutions. 200 mM phosphate buffers at pH 6.87, 7.41, 7.73, 8.04, and 9.18 were prepared. 4 mg/ml solutions of PBI 3048, 4013, 4424 and 4425 (FIG. 1) in DMSO (Fluka 41641) were made from solid powder.
# Into two 96-well white, solid bottom luminometer plates (Promega Z3291) (labeled “A” and “B”), 50 μl of 200 mM phosphate buffer pH 6.87 was added to wells A1-H2; 50 μl of 200 mM phosphate pH 7.41 was added to wells A3-H4; 50 μl of 200 mM phosphate buffer pH 7.73 was added to wells A5-H6; 50 μl of 200 mM phosphate buffer pH 8.04 was added to wells A7-H8; and 50 μl of 200 mM phosphate buffer pH 9.18 was added to wells A9-H10.
# 50 μl of 4 mg/ml PBI 4013 in DMSO was diluted to 1.25 ml with Nanopure water, and 25 μl added to wells A1-D10 of plate A. 50 μl of 4 mg/ml PBI 4424 was diluted to 1.25 ml with Nanopure water, and 25 μl added to E1-H10 of plate A. 50 μl of 4 mg/ml PBI 3048 was diluted to 1.25 ml with Nanopure water, and 25 μl added to A1-D10 of plate B. 50 μl of 4 mg/ml PBI 4425 was diluted to 1.25 ml with Nanopure water, and 25 μl added to E1-H10 of plate B. 25 μl of Nanopure water was added to rows A and E of both plates. 17 μl of Nanopure water was added to rows B and F of both plates; and 8 μl of Nanopure water was added to rows C and G of both plates
# A hydrogen peroxide solution (30% hydrogen peroxide, Sigma H1009-5 ml) was diluted to 60 μM hydrogen peroxide with Nanopure water, and 25 μl of the 60 μM hydrogen peroxide was added to rows D and H of both plates; 17 μl of […] hydrogen peroxide was added to rows C and G of both plates; and 8 μl of […] hydrogen peroxide was added to rows B and F of both plates. Both plates A and B were then gently mixed for 70 minutes.
# A bottle of Reconstitution Buffer with Esterase (Promega V144B) was thawed and used to reconstitute a Luciferin Detection Reagent (Promega V859B) to create a reconstituted Luciferin Detection Reagent (“LDR”). 15 ml of 1 M HEPES buffer, pH 7.5 was mixed with 25 ml of the LDR, and 80 μl added to wells A1-H10 of two new luminometer plates (“R1” and “R2”).
# Following incubation, 20 μl of the contents of wells A1-H10 of plate A was transferred to the same wells in plate R1, and 20 μl of A1-H10 of plate B was transferred to the same wells in plate R2. Plate R1 and R2 were then incubated at room temperature for 15 minutes, and bioluminescence was measured with a GloMax® luminometer (Promega Corp).
# Bioluminescence from duplicate wells was averaged, and the average relative light units (RLUs) from samples containing peroxide were compared to those from the samples not containing peroxide incubated at the same pH (Table 1).
smiles,measurement,setting,value
O=C(O)C1CSC(c2nc3ccc(OCc4ccc(B(O)O)cc4)cc3s2)=N1 (stereo not drawn) [PBI 3048],average relative light units (bioluminescence),"H2O2 0 μM, phosphate buffer pH 6.87, 70 minutes","392,535 RLU"
same,average relative light units (bioluminescence),"H2O2 0 μM, phosphate buffer pH 7.41, 70 minutes","418,478 RLU"
same,average relative light units (bioluminescence),"H2O2 0 μM, phosphate buffer pH 7.73, 70 minutes","470,830 RLU"
same,average relative light units (bioluminescence),"H2O2 0 μM, phosphate buffer pH 8.04, 70 minutes","561,030 RLU"
same,average relative light units (bioluminescence),"H2O2 0 μM, phosphate buffer pH 9.18, 70 minutes","819,156 RLU"
same,average relative light units (bioluminescence),"H2O2 5 μM, phosphate buffer pH 6.87, 70 minutes","521,375 RLU"
same,average relative light units (bioluminescence),"H2O2 5 μM, phosphate buffer pH 7.41, 70 minutes","794,181 RLU"
same,average relative light units (bioluminescence),"H2O2 5 μM, phosphate buffer pH 7.73, 70 minutes","1,200,842 RLU"
same,average relative light units (bioluminescence),"H2O2 5 μM, phosphate buffer pH 8.04, 70 minutes","1,831,013 RLU"
same,average relative light units (bioluminescence),"H2O2 5 μM, phosphate buffer pH 9.18, 70 minutes","3,834,248 RLU"
same,average relative light units (bioluminescence),"H2O2 10 μM, phosphate buffer pH 6.87, 70 minutes","717,216 RLU"
same,average relative light units (bioluminescence),"H2O2 10 μM, phosphate buffer pH 7.41, 70 minutes","1,302,514 RLU"
same,average relative light units (bioluminescence),"H2O2 10 μM, phosphate buffer pH 7.73, 70 minutes","2,057,780 RLU"
same,average relative light units (bioluminescence),"H2O2 10 μM, phosphate buffer pH 8.04, 70 minutes","3,137,287 RLU"
same,average relative light units (bioluminescence),"H2O2 10 μM, phosphate buffer pH 9.18, 70 minutes","6,426,397 RLU"
same,average relative light units (bioluminescence),"H2O2 15 μM, phosphate buffer pH 6.87, 70 minutes","833,785 RLU"
same,average relative light units (bioluminescence),"H2O2 15 μM, phosphate buffer pH 7.41, 70 minutes","1,709,044 RLU"
same,average relative light units (bioluminescence),"H2O2 15 μM, phosphate buffer pH 7.73, 70 minutes","2,713,251 RLU"
same,average relative light units (bioluminescence),"H2O2 15 μM, phosphate buffer pH 8.04, 70 minutes","4,193,451 RLU"
same,average relative light units (bioluminescence),"H2O2 15 μM, phosphate buffer pH 9.18, 70 minutes","7,447,757 RLU"
same,light signal increase upon addition of hydrogen peroxide (in words),all pH values 6.87 to 9.18,increased strongly
